# Columns and labels:
# Human HDAC2 = target: T1, Human HDAC2 (Homo sapiens, UniProt Q92769); experiment: Biochemical HDAC enzymatic assay, HDAC2; settings: incubation time 120 min
# T1 construct: full-length with a C-terminal His-tag, MW=56 kDa; His-tag (C); made in house; host or cells: baculovirus expression system
# Method: (§1) Incubation time for HDAC1/2 is 120 min, and 10 min for other HDACs.
# Human HDAC2 (GenBank Accession No. NM_001527), full-length with a C-terminal His-tag, MW=56 kDa, was expressed in a baculovirus expression system.
# (§2) • I. Compound handling: Testing compounds were dissolved in 100% DMSO to a specific concentration. The serial dilution was conducted by epMotion 5070 in DMSO. • II. HDAC reaction buffer: 50 mM Tris-HCl, pH8.0, 137 mM NaCl, 2.7 mM KCl, and 1 mM MgCl2, Added fresh: 1 mg/ml BSA, 1% DMSO. • III. Substrate: Fluorogenic HDAC General Substrate for HDAC1, 2, 3, 6, 10, 11 ans Sirt1, 2 and 3: Arg-His-Lys-Lys(Ac); HDAC8 only substrate: Arg-His-Lys(Ac)-Lys(Ac); Class2A Substrate (HDAC4, 5, 7 and 9): Acetyl-Lys(trifluoroacetyl)-AMC; Sirt5 substrate: Ac-Lys(succinyl)-AMC. • IV. General Reaction Procedure: (Standard IC50 determination) • a. Delivered 2× enzyme in wells of reaction plate except No Enzyme (No En) control wells. Add buffer in No En wells. • b. Delivered compounds in 100% DMSO into the enzyme mixture by Acoustic technology (Echo550; nanoliter range). Spin down and pre-incubation. • c. Delivered 2× Substrate Mixture (Fluorogenic HDAC Substrate and co-factor (500 μM of Nicotinamide adenine dinucleotide (NAD^+) in all Sirt assay) in all reaction wells to initiate the reaction. Spin and shake. • d. Incubated for 1-2 hr. at 30° C. with seal. • e. Added Developer with Trichostatin A (or TMP269 or NAD^+) to stop the reaction and to generate fluorescent color. • f. Fluorescence was read (excitatory, 360; emission, 460) using the EnVision Multilabel Plate Reader (Perkin Elmer) • g. Endpoint reading was taken for analysis after the development reaches plateau. • V. Data Analysis: The percentages of enzyme activity (relative to DMSO controls) and IC50 values were calculated using the GraphPad Prism 4 program based on a sigmoidal dose-response equation.
# (§3) The inhibitory activities of HDAC of compounds of the invention were determined using biochemical HDAC assays. Compounds were tested at the indicated doses in the biochemical assays of HDAC1, HDAC2, HDAC3, HDAC4, HDAC5, HDAC6, HDAC7, HDAC8, HDAC9, HDAC10, or HDAC11 enzyme. The curve fit and IC50 values were calculated using the GraphPad Prism 4 program based on a sigmoidal dose-response equation.
# as §2, with “[…]” for “μM”, “equation. […]” for “equation.”
# Human HDAC8 = target: T2, Human HDAC8 (Homo sapiens, UniProt Q9BY41); experiment: Biochemical HDAC enzymatic assay, HDAC8; settings: incubation time 10 min
# T2 construct: full-length with a C-terminal His tag, MW=46.4 kDa; His tag (C); made in house; host or cells: baculovirus expression system
# T2 sequence (Q9BY41 1-377): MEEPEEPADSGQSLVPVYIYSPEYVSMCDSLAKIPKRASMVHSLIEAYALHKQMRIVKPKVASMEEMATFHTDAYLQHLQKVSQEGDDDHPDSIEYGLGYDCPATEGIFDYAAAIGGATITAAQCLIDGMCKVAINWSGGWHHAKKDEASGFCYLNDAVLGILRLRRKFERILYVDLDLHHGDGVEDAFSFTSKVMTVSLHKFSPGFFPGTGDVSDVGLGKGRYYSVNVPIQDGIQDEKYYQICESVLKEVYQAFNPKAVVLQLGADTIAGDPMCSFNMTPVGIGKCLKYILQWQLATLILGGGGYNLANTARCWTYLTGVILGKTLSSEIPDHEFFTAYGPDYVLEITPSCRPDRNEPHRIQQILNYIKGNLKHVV
# Method: as §1
# Human HDAC8 (GenBank Accession No. NM_018486), full-length with a C-terminal His tag, MW=46.4 kDa, was expressed in a baculovirus expression system.
# as §2, §3
# as §2, with “[…]” for “μM”, “equation. […]” for “equation.”
# Human HDAC1 = target: T3, Human HDAC1 (Homo sapiens, UniProt Q13547); experiment: Biochemical HDAC enzymatic assay, HDAC1; settings: incubation time 120 min
# T3 construct: full-length with a C-terminal His-tag and a C-terminal FLAG-tag; His-tag (C); FLAG-tag (C); made in house; host or cells: baculovirus expression system
# T3 sequence (Q13547 whole entry): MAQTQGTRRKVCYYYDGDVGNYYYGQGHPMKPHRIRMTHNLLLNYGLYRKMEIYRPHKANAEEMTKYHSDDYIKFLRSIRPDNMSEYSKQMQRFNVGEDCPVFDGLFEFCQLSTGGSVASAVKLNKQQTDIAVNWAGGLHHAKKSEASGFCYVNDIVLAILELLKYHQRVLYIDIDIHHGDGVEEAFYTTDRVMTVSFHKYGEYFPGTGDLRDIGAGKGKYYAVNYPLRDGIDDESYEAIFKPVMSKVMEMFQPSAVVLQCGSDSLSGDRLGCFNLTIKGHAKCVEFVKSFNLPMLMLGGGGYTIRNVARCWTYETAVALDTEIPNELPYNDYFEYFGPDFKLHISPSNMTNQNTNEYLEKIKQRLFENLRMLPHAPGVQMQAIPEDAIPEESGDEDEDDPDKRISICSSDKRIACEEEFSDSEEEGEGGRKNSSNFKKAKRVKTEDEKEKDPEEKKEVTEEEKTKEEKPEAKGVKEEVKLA
# Method: as §1
# Human HDAC1 (GenBank Accession No. NM_004964), full-length with a C-terminal His-tag and a C-terminal FLAG-tag, MW=56 kDa, was expressed in a baculovirus expression system.
# as §2, §3
# as §2, with “[…]” for “μM”, “equation. […]” for “equation.”
# T1 sequence (Q92769 whole entry): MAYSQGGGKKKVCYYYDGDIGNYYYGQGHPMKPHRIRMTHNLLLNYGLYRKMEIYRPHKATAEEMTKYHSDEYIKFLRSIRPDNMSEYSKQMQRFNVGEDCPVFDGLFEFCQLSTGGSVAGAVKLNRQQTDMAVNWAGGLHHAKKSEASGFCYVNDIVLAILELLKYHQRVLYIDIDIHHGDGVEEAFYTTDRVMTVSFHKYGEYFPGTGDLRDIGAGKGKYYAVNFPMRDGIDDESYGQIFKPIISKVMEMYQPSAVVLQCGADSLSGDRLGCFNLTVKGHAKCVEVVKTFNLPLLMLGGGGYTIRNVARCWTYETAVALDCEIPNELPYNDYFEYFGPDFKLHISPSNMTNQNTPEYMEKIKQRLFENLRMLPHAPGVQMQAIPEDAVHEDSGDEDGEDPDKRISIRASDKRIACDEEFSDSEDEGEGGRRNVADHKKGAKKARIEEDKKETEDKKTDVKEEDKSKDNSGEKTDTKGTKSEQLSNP
SMILES,IC50 (Human HDAC2; Table 2) [nM],IC50 (Human HDAC8; Table 2) [nM],IC50 (Human HDAC1; Table 2) [nM],IC50 (Human HDAC2; Table 1) [nM],IC50 (Human HDAC8; Table 1) [nM],IC50 (Human HDAC1; Table 1) [nM]
"O=C(NO)c1ccc(CN2C(=O)c3ccccc3C23OCCO3)cc1 [Compound Example 8, N-hydroxy-4-((3-oxospiro[isoindoline-1,2′-[1,3]dioxolan]-2-yl)methyl)benzamide]",> 10000,400,8000,–,–,–
O=C(NO)c1ccc(CN2C(=O)C3(CCOC3)c3ccccc32)cc1 (stereo not drawn) [Compound Example 9],17200,1920,9100,–,–,–
"O=C(NO)c1ccc(CN2C(=O)c3ccccc3C23CCNCC3)cc1 [Compound Example 10, N-hydroxy-4-((3-oxospiro[isoindoline-1,4′-piperidin]-2-yl)methyl)benzamide]",> 10000,710,6000,–,–,–
"CN(C)C(=O)N1CCC2(CC1)c1ccccc1C(=O)N2Cc1ccc(C(=O)NO)cc1 [Compound Example 11, 2-(4-(hydroxycarbamoyl)benzyl)-N,N-dimethyl-3-oxospiro[isoindoline-1,4′-piperidine]-1′-carboxamide]",> 10000,520,> 10000,–,–,–
"O=C(NO)c1ccc(CN2C(=O)c3ccccc3C23CCN(C2CC2)CC3)cc1 [Compound Example 12, 4-((1′-cyclopropyl-3-oxospiro[isoindoline-1,4′-piperidin]-2-yl)methyl)-N-hydroxybenzamide]",> 10000,1200,> 10000,–,–,–
"Nc1ccc(-c2cccs2)cc1NC(=O)c1ccc(CN2C(=O)CCCC23CNC3)cc1 [Example 1, N-(2-amino-5-(thiophen-2-yl)phenyl)-4-((6-oxo-2,5-diazaspiro[3.5]nonan-5-yl)methyl)benzamide]",–,–,–,60,> 20000,6
"Nc1ccc(-c2cccs2)cc1NC(=O)c1ccc(CN2C(=O)CCC23CCNCC3)cc1 [Example 2, N-(2-amino-5-(thiophen-2-yl)phenyl)-4-((2-oxo-1,8-diazaspiro[4.5]decan-1-yl)methyl)benzamide]",–,–,–,146,> 20000,14
"Nc1cc(F)ccc1NC(=O)c1ccc(CN2C(=O)CCCC23CNC3)cc1 [Example 3, N-(2-amino-4-fluorophenyl)-4-((6-oxo-2,5-diazaspiro[3.5]nonan-5-yl)methyl)benzamide]",–,–,–,11800,> 10000,20000
"CN1CCC2(CC1)CN(c1ccc(C(=O)Nc3cc(-c4cccs4)ccc3N)cn1)C(=O)O2 [Example 4, N-(2-amino-5-(thiophen-2-yl)phenyl)-6-(8-methyl-2-oxo-1-oxa-3,8-diazaspiro[4.5]decan-3-yl)nicotinamide]",–,–,–,64,> 20000,7
"Nc1ccc(-c2ccc(F)cc2)cc1NC(=O)c1ccc(N2CC3(CCOCC3)OC2=O)nc1 [Example 5, N-(4-amino-4′-fluoro-[1,1′-biphenyl]-3-yl)-6-(2-oxo-1,8-dioxa-3-azaspiro[4.5]decan-3-yl)nicotinamide]",–,–,–,115,> 20000,23
"Nc1ccc(-c2cccs2)cc1NC(=O)c1ccc(N2CC3(CCNCC3)CCC2=O)nc1 [Example 6, N-(2-amino-5-(thiophen-2-yl)phenyl)-6-(3-oxo-2,9-diazaspiro[5.5]undecan-2-yl)nicotinamide]",–,–,–,610,> 20000,85
